Measured values: patent US20250290074A1, “TARGETED TREATMENT OF SPLICEOPATHY-INDUCED NEUROLOGICAL DISORDERS” (Auttx, LLC, priority 2022, published 2025)
Where two headings read alike, the source gives them in different places. Strand notation (5' to 3'): a small letter for the sugar, then the base; units joined by * are phosphorothioate-linked, units joined directly phosphodiester-linked; [ ] holds rarer units or linkages, { } end groups; capitals alone tell only the bases. e = 2'-O-(2-methoxyethyl) (MOE); [5mC] = 5-methylcytosine

What was measured:
HNRNPL = conditions: Gene HNRNPL; cited from earlier work
hnRNP L [1] = test: Western blot of hnRNP L protein in rat primary cortical neurons after ASC treatment; type: cell-based; conditions: 10^−7 M or 10^−6 M ASC, FIG. 14
Protocol: (§1) FIG. 14 is a gel image showing a comparison of hnRNP L protein levels in rat primary cortical neurons with or without ASC treatments at different doses. The rat neurons were treated with 10^−7 M or 10^−6 M ASC, or not treated as control (“Cont.”), and then lysed for western blot detection of protein expression levels of hnRNP L (the upper panel). The arrow points to hnRNP L protein bands (appears as a triplet). […] FIG. 14B is a gel image showing elevation of hnRNP L levels after ASC treatment in SH-SY5Y human neuroblastoma cells (CLT results).
(§2) Such function of ASC was also found in human osteosarcoma cells (about 10-fold) and multiple disease models, see PCT publication no. WO/2019/236750, which is incorporated by reference herein in its entirety.

hnRNP L [2] = test: hnRNP L levels after ASC treatment in SH-SY5Y human neuroblastoma cells; type: cell-based; conditions: FIG. 14B
Protocol: as §1

hnRNP L [3] = test: hnRNP L expression in human differentiated myoblasts after ASC treatment; type: cell-based
From the text: as §2

hnRNP L [4] = conditions: cited from earlier work; for increase in the levels of hnRNP L: human osteosarcoma cells (U2OS)
cancer = conditions: literature; cited from earlier work
[5] = cited from earlier work; for toxicity (shown to be non-toxic): in vivo; for toxicity (LD50): IP or oral administration, U.S. Pat. No. 3,995,061, FIGS. 15A and 15B
TDP-43 aggregation = conditions: iPS cell derived motor neurons, sporadic ALS; Burkhardt et al. 2013; cited from earlier work
[6] = U.S. Pat. No. 3,995,061, cited from earlier work; for toxicity: administered orally to human
[7] = tested on: vascular endothelial growth factor (VEGF); conditions: Jeong J. H. et al. 2011; cited from earlier work
[8] = tested on: glucose transporter 1 (GLUT-1); conditions: Jeong J. H. et al. 2011; cited from earlier work
[9] = mouse, in vivo, po; cited from earlier work
[10] = rat, in vivo, po; cited from earlier work
[11] = tested on: human hnRNP L (hsHNRNP L) mRNA; test: 5-point dose response (DRC) of ASOs, hnRNP L mRNA by branched DNA assay in BE(2)-M17 cells; type: cell-based; conditions: 24 h; for max. upregulation [%] (MV normalized hsHNRNP L/hsGAPDH): Lipofectamine3000, highest 120 nM, four 4-fold dilutions, bDNA, negative controls set to 100%; for EC50: hsHNRNP L mRNA upregulation, XLfit
From the text: Data were generated in biological quadruplicates. […] No significant decrease in hsGAPDH mRNA levels was observed.
Details and data are shown in Table 9A-9B, FIG. 24, and FIG. 25A-25E. In some cases, there was dose dependent hsHNRNP L on-target mRNA upregulation to varying degrees when cells were transfected with ASO compounds of interest.

hsHNRNP L mRNA = test: Time-course experiment, ASOs at 30 nM, hnRNP L mRNA by bDNA in BE(2)-M17 cells; type: cell-based, Homo sapiens; conditions: 30 nM ASO, mock controls set to 100%, incubations 24 h, 48 h, 72 h, time point not given
Protocol: Lipofectamine3000 (LF3000) was again used as the transfection agent. The transfection mixture was prepared identically on three plates. […] In this case, no outliers were removed. Data were generated in biological quadruplicates.
FIG. 26 includes a comparison of results from this study next to results from Example 7. Observing the results after 24 h incubation, similar data from the analysis in Example 7 were reproduced here.

Molecule: CCc1c2c(nc3ccc(OC(=O)N4CCC(N5CCCCC5)CC4)cc13)-c1cc3c(c(=O)n1C2)COC(=O)[C@]3(O)CC [irinotecan]
- Source (DSigDB signature, association with increased hnRNP L levels) (HNRNPL): D3(UP)

Molecule: ascochlorin
- hnRNP L expression levels (hnRNP L [1]): increased
- hnRNP L levels (hnRNP L [2]): elevation
- increase of hnRNP L expression levels (hnRNP L [3]): about 6 fold
- increase of hnRNP L levels (hnRNP L [4]; Kang J. H. et al. J Proteome Res. 2006): ~12 ×
- increase in the levels of hnRNP L (hnRNP L [4]): ≥ 10 fold
- increase in the levels of hnRNP L (hnRNP L [4]; listed as ASC): about 10 fold
- antitumorigenic / anti-cancer properties (cancer): antitumorigenic properties
- toxicity (shown to be non-toxic) [5]: non-toxic

Molecule: C[C@@H]1O[C@@H](O[C@@H]2C=C3CC[C@@H]4[C@H](CC[C@]5(C)[C@@H](c6ccc(=O)oc6)CC[C@]45O)[C@@]3(C)CC2)[C@H](O)[C@H](O)[C@H]1O [proscillaridin]
- Source (DSigDB signature, association with increased hnRNP L levels) (HNRNPL): D3(UP)
- hit in screen for compounds reducing TDP-43 aggregation (TDP-43 aggregation): hits confirmed in dose response assays

Molecule: CC(C=CC1(C)C(C)CCC(=O)C1C)=CCc1c(O)c(Br)c(C)c(C=O)c1O (centres unmarked) [3-bromoascochlorin, reference compound]
- antitumorigenic / anti-cancer properties (cancer): anti-cancer properties

Molecule: CCOc1c(Cl)c(C)c(C=O)c(O)c1C/C=C(C)/C=C/C1(C)C(C)CCC(=O)C1C (centres unmarked) [4-O-ethyl-ascochlorin]
- toxicity [6]: low toxicity
- toxicity (LD50) [5]: low toxicity

Molecule: C[C@H](CS)C(=O)N1CCC[C@H]1C(=O)O [captopril]
- Source (DSigDB signature, association with increased hnRNP L levels) (HNRNPL): D3(UP)

Molecule: C/C(=C\Cc1c(O)c(Cl)c(C)c(C=O)c1O)CC/C=C(\C)[C@@H]1CC(=O)C(C)(C)O1 [ascofuranone]
- antitumorigenic / anti-cancer properties (cancer): antitumorigenic properties
- toxicity (shown to be non-toxic) [5]: non-toxic

Molecule: COc1c(Cl)c(C)c(C=O)c(O)c1C/C=C(C)/C=C/[C@@]1(C)[C@H](C)CCC(=O)[C@@H]1C [MAC, 4-O-methylascochlorin]
- tolerability in clinical trials [6]: well tolerated
- toxicity [6]: low toxicity
- expression of VEGF [7]: increases
- expression of GLUT-1 [8]: increases
- antitumorigenic / anti-cancer properties (cancer): antitumorigenic properties
- toxicity (LD50) [5]: low toxicity
- toxicity [9]: low toxicity
- toxicity [10]: low toxicity

Molecule: Skip-6A-11: ASO ATGGCGTCCCATCAAACATACA (SEQ ID NO: 60), fully 2′-MOE, 5′-methyl C, phosphorothioate; exon 6A (antisense eA*eT*eG*eG*e[5mC]*eG*eT*e[5mC]*e[5mC]*e[5mC]*eA*eT*e[5mC]*eA*eA*eA*e[5mC]*eA*eT*eA*e[5mC]*eA; listed as Homo sapiens)
- max. upregulation [%] (MV normalized hsHNRNP L/hsGAPDH) [11]: 47.8%
- EC50 [11]: 7.93 nM
- MV normalized hsHNRNP L/hsGAPDH (hsHNRNP L mRNA): 38.3%

Molecule: C=C1CC[C@H](O)C(C)(C)[C@@H]1CC/C(C)=C/Cc1c(O)c(Cl)c(C)c(C=O)c1O [acremochlorin A, reference compound]
- antitumorigenic / anti-cancer properties (cancer): anti-cancer properties

Molecule: Skip-6A-19: ASO TTCTCTTACCATTGGACGCTTC (SEQ ID NO: 68), fully 2′-MOE, 5′-methyl C, phosphorothioate; exon 6A (antisense eT*eT*e[5mC]*eT*e[5mC]*eT*eT*eA*e[5mC]*e[5mC]*eA*eT*eT*eG*eG*eA*e[5mC]*eG*e[5mC]*eT*eT*e[5mC]; listed as Homo sapiens)
- max. upregulation [%] (MV normalized hsHNRNP L/hsGAPDH) [11]: 51.8%
- EC50 [11]: 7.36 nM
- MV normalized hsHNRNP L/hsGAPDH (hsHNRNP L mRNA): 62.4%

Molecule: Skip-6A-7: ASO GCGACCCTGCATCACATGGTTT (SEQ ID NO: 56), fully 2′-MOE, 5′-methyl C, phosphorothioate; upstream intron/exon (antisense eG*e[5mC]*eG*eA*e[5mC]*e[5mC]*e[5mC]*eT*eG*e[5mC]*eA*eT*e[5mC]*eA*e[5mC]*eA*eT*eG*eG*eT*eT*eT; listed as Homo sapiens)
- max. upregulation [%] (MV normalized hsHNRNP L/hsGAPDH) [11]: 51.2%
- EC50 [11]: 8.91 nM
- MV normalized hsHNRNP L/hsGAPDH (hsHNRNP L mRNA): 59.3%

Molecule: CN(C)C(=O)Oc1cccc([N+](C)(C)C)c1 [neostigmine bromide]
- Source (DSigDB signature, association with increased hnRNP L levels) (HNRNPL): D3(UP)

Molecule: Skip-6A-20: ASO CTGTATTTTCTCTTACCATTGG (SEQ ID NO: 69), fully 2′-MOE, 5′-methyl C, phosphorothioate; exon 6A (antisense e[5mC]*eT*eG*eT*eA*eT*eT*eT*eT*e[5mC]*eT*e[5mC]*eT*eT*eA*e[5mC]*e[5mC]*eA*eT*eT*eG*eG; listed as Homo sapiens)
- max. upregulation [%] (MV normalized hsHNRNP L/hsGAPDH) [11]: 71.6%
- EC50 [11]: 5.04 nM
- MV normalized hsHNRNP L/hsGAPDH (hsHNRNP L mRNA): 68.3%

Molecule: C[C@H]1O[C@@H](O[C@H]2[C@@H](O)C[C@H](O[C@H]3[C@@H](O)C[C@H](O[C@H]4CC[C@@]5(C)[C@H](CC[C@@H]6[C@@H]5C[C@@H](O)[C@]5(C)[C@@H](C7=CC(=O)OC7)CC[C@]65O)C4)O[C@@H]3C)O[C@@H]2C)C[C@H](O)[C@@H]1O [digoxin]
- Source (DSigDB signature, association with increased hnRNP L levels) (HNRNPL): D3(UP)
- hit in screen for compounds reducing TDP-43 aggregation (TDP-43 aggregation): hits confirmed in dose response assays
